Data on 62 compounds can be found in patent US9890138B2, “Diaminopyrimidine derivatives and processes for the preparation thereof” (YUHAN CORPORATION, priority 2011, dated 2018).

What is called EC50 is the midpoint of the concentration-response curve. Lower therefore signals higher potency in that assay.

Where a name gives a salt, the structure may show the parent alone.

T1 sequence (Q13639 1-387 isoform Q13639-2): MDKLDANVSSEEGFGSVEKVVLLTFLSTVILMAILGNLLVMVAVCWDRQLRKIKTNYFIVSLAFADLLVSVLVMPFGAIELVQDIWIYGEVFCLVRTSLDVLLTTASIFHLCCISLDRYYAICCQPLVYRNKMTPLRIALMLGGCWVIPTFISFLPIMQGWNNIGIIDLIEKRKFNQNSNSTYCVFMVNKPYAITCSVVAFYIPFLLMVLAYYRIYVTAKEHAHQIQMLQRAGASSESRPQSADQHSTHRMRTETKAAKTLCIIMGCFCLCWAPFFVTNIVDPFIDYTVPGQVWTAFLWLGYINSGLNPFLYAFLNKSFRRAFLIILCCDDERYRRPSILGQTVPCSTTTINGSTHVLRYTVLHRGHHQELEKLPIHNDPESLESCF

The experiment concerns the target T1, human 5-HT4(a) (Homo sapiens, UniProt Q13639).
T1 construct: host or cells: GeneBlAzer HTR4-CRE-bla CHO-K1 cells
Briefly: Evaluation of agonistic activity in CHO-K1 cells expressing human 5-HT4(a) (GeneBlAzer HTR4-CRE-bla CHO-K1, beta-lactamase reporter). It is filed as cell-based. Particulars: CHO-K1 cells stably expressing human 5-HT4(a). The essentials: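 Agonism read as CRE-driven β-lactamase activity: emission ratio 465/535 nm (excitation 410 nm) after 2 h substrate loading. Preceded by 5 h compound treatment, 8 concentrations, 1% DMSO in the added solution, of overnight-plated reporter CHO-K1 cells; EC50 by non-linear regression.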
As to `CCCc1cc(N2CCC[C@H]2COC)nc(Nc2cccc(N)c2)n1` [Example 364], the EC50 came to 0.122 nM.

The compound `CCCc1cc(N2CCC[C@H]2COC)nc(Nc2ccc(F)c(N)c2)n1` [Example 365] yielded an EC50 of 0.027 nM.

`CCCc1cc(N2CCC[C@H]2COC)nc(Nc2ccc(C)c(N)c2)n1` [Example 366] registered an EC50 of 0.078 nM.

For the compound `CCCc1cc(N2CCC[C@H]2COC)nc(Nc2ccc(OC)c(N)c2)n1` [Example 367, (S)-4-methoxy-N^1-{4-[2-(methoxymethyl)pyrrolidin-1-yl]-6-propylpyrimidin-2-yl}benzene-1,3-diamine], the EC50 came to 0.153 nM.

Turning to `CCCc1cc(N2CCC[C@H]2COC)nc(Nc2ccc3c(c2)NCC3)n1` [Example 368], a half-maximal effect (EC50) was put at 0.182 nM.

Regarding `CCCc1cc(N2CC[C@H](N)C2)nc(Nc2ccc(C)c(N)c2)n1` [Example 369], the EC50 was determined as 0.049 nM.

The compound `CCCc1cc(N2CC[C@H](N)C2)nc(Nc2ccc(F)c(N)c2)n1` [Example 370, (S)—N^1-[4-(3-aminopyrrolidin-1-yl)-6-propylpyrimidin-2-yl]-4-fluorobenzene-1,3-diamine dihydrochloride] had a concentration for a half-maximal effect (EC50) of 0.015 nM.

For the compound `CCCc1cc(N2CC[C@H](NCC3CC3)C2)nc(Nc2ccc(Cl)c([N+](=O)[O-])c2)n1` [Example 372], the concentration giving a half-maximal response (EC50) turned out to be 0.0046 nM.

In turn, `CCCc1cc(N2CC[C@H](NCC3CC3)C2)nc(Nc2ccc(F)c([N+](=O)[O-])c2)n1` [Example 373] yielded an EC50 of 0.0043 nM.

`CCCc1cc(N2CC[C@H](NCC3CC3)C2)nc(Nc2ccc(C)c([N+](=O)[O-])c2)n1` [Example 374, (S)-4-[3-(cyclopropylmethylamino)pyrrolidin-1-yl]-N-(4-methyl-3-nitrophenyl)-6-propylpyrimidin-2-amine] returned an EC50 of 0.0027 nM.

In turn, `CCCc1cc(N2CC[C@H](NCC3CC3)C2)nc(Nc2cccc([N+](=O)[O-])c2)n1` [Example 375, (S)-4-[3-(cyclopropylmethylamino)pyrrolidin-1-yl]-N-(3-nitrophenyl)-6-propylpyrimidin-2-amine] registered a 50% effective concentration (EC50) of 0.0033 nM.

For the compound `CCCc1cc(N2CC[C@H](NCC3CC3)C2)nc(Nc2ccc(F)c(C#N)c2)n1` [Example 376, (S)-5-{4-[3-(cyclopropylmethylamino)pyrrolidin-1-yl]-6-propylpyrimidin-2-ylamino}-2-fluorobenzonitrile], it took 0.0037 nM to reach a half-maximal effect (EC50).

As to `CCCc1cc(N2CC[C@H](NCC3CC3)C2)nc(Nc2ccc(C)c(C#N)c2)n1` [Example 377, (S)-5-{4-[3-(cyclopropylmethylamino)pyrrolidin-1-yl]-6-propylpyrimidin-2-ylamino}-2-methylbenzonitrile], a half-maximal response (EC50) required 0.0013 nM.

`CCCc1cc(N2CC[C@H](NCC3CC3)C2)nc(Nc2cccc(SC)c2)n1` [Example 378] had an EC50 of 0.015 nM.

For the compound `CCCc1cc(N2CC[C@H](NCC3CC3)C2)nc(Nc2cccc(C(F)(F)F)c2)n1` [Example 379], the EC50 was 0.0098 nM.

As to `CCCc1cc(N2CC[C@H](NCC3CC3)C2)nc(Nc2cc(Cl)ccc2C)n1` [Example 380], the EC50 worked out at 0.009 nM.

Compound `CCCc1cc(N2CC[C@H](NCC3CC3)C2)nc(Nc2ccc(C)c(Cl)c2)n1` [Example 381] had an EC50 of 0.0043 nM.

In turn, `CCCc1cc(N2CC[C@H](NCC3CC3)C2)nc(Nc2ccc(F)c(C(F)(F)F)c2)n1` [Example 382] had a 50% effective concentration (EC50) of 0.0051 nM.

Turning to `CCCc1cc(N2CC[C@H](NCC3CC3)C2)nc(Nc2ccc(C)c(N)c2)n1` [Example 383], the midpoint of the response, the EC50, lay at 0.0057 nM.

As for `CCCc1cc(N2CC[C@H](NCC3CC3)C2)nc(Nc2cccc(N)c2)n1` [Example 384], the EC50 amounted to 0.077 nM.

Compound `CCCc1cc(N2CCC(NCC3CC3)C2)nc(Nc2cccc(C#N)c2)n1` (centres unmarked) [Example 387, 3-{4-[3-(cyclopropylmethylamino)pyrrolidin-1-yl]-6-propylpyrimidin-2-ylamino}benzonitrile dihydrochloride] displayed an EC50 of 0.007 nM.

Compound `CCCc1cc(N2CC[C@H](NC(=O)CN)C2)nc(Nc2cccc(C#N)c2)n1` [Example 395] displayed an EC50 of 0.082 nM.

`CCCc1cc(N2CCC[C@H]2CO)nc(Nc2ccc(C)c(N)c2)n1` [Example 399]: the response was half-maximal at 0.13 nM (EC50).

Compound `CCCc1cc(N2CCC[C@H]2CO)nc(Nc2ccc(F)c(N)c2)n1` [Example 400] came in with an EC50 of 0.033 nM.

The compound `CCCc1cc(N2CCC[C@H]2CO)nc(Nc2ccc(Cl)c(N)c2)n1` [Example 401] registered an EC50 of 0.073 nM.

The compound `CCCc1cc(N2CCC[C@H]2C=O)nc(Nc2cccc(C#N)c2)n1` [Example 402, (S)-3-[4-(2-formylpyrrolidin-1-yl)-6-propylpyrimidin-2-ylamino]benzonitrile] returned an EC50 of 0.236 nM.

Compound `CCCc1cc(N2CCC[C@H]2CNC)nc(Nc2cccc(C#N)c2)n1` [Example 403] came in with a half-maximal effective concentration (EC50) of 0.414 nM.

`CCCc1cc(N2CCC[C@H]2CNCc2ccc(F)cc2)nc(Nc2cccc(C#N)c2)n1` [Example 405] displayed an EC50 of 0.399 nM.

`CCCNC[C@@H]1CCCN1c1cc(CCC)nc(Nc2cccc(C#N)c2)n1` [Example 406] registered an EC50 of 0.402 nM.

`CCCc1cc(N2CCC[C@H]2CNCCO)nc(Nc2cccc(C#N)c2)n1` [Example 407] had a concentration for a half-maximal effect (EC50) of 0.254 nM.

`CCCN[C@H]1CCN(c2cc(CCC)nc(Nc3ccc(C)c(C#N)c3)n2)C1` [Example 414] registered a concentration giving a half-maximal response (EC50) of 0.0034 nM.

As for `CCCc1cc(N2CC[C@H](NCCCSC)C2)nc(Nc2ccc(C)c(C#N)c2)n1` [Example 415], the midpoint of the response, the EC50, lay at 0.015 nM.

Compound `CCCc1cc(N2CC[C@H](NCc3ccc[nH]3)C2)nc(Nc2ccc(C)c(C#N)c2)n1` [Example 416] displayed a half-maximal effective concentration (EC50) of 0.0074 nM.

The compound `CCCc1cc(N2CC[C@H](NCc3ccc(O)cc3)C2)nc(Nc2ccc(C)c(C#N)c2)n1` [Example 417] registered a concentration giving a half-maximal response (EC50) of 0.0051 nM.

As for `CCCc1cc(N2CC[C@H](NC(C)C)C2)nc(Nc2ccc(C)c(C#N)c2)n1` [Example 418, (S)-5-{4-[3-(isopropylamino)pyrrolidin-1-yl]-6-propylpyrimidin-2-ylamino]-2-methylbenzonitrile], the EC50 came to 0.0022 nM.

As for `CCCc1cc(N2CC[C@H](NC3CCC3)C2)nc(Nc2ccc(C)c(C#N)c2)n1` [Example 419], a half-maximal response (EC50) required 0.0032 nM.

With `CCCc1cc(N2CC[C@H](NC3CCCC3)C2)nc(Nc2ccc(C)c(C#N)c2)n1` [Example 420], a half-maximal response (EC50) required 0.0029 nM.

For the compound `CCCc1cc(N2CC[C@H](NC3CCCCC3)C2)nc(Nc2ccc(C)c(C#N)c2)n1` [Example 421], the concentration giving a half-maximal response (EC50) was found to be 0.0079 nM.

In turn, `CCCCCN[C@H]1CCN(c2cc(CCC)nc(Nc3ccc(C)c(C#N)c3)n2)C1` [Example 422] came in with an EC50 of 0.011 nM.

As for `CCCc1cc(N2CC[C@H](NCC(C)(C)C)C2)nc(Nc2ccc(C)c(C#N)c2)n1` [Example 423], the EC50 amounted to 0.0084 nM.

For `CCCc1cc(N2CC[C@H](NCc3cc(C)c(C)o3)C2)nc(Nc2ccc(C)c(C#N)c2)n1` [Example 424], the EC50 amounted to 0.02 nM.

`CCCc1cc(N2CC[C@H](NC(=O)CC)C2)nc(Nc2ccc(C)c(C#N)c2)n1` [Example 425] had an EC50 of 0.056 nM.

For the compound `CCCc1cc(N2CC[C@H](NC(=O)Cc3ccccc3)C2)nc(Nc2ccc(C)c(C#N)c2)n1` [Example 426], a half-maximal effect (EC50) was put at 0.079 nM.

In turn, `CCCc1cc(N2CC[C@H](NC(=O)CN3CCCCC3)C2)nc(Nc2ccc(C)c(C#N)c2)n1` [Example 427] came in with an EC50 of 0.024 nM.

Compound `CCCc1cc(N2CC[C@H](NC(=O)Cc3cccnc3)C2)nc(Nc2ccc(C)c(C#N)c2)n1` [Example 428] displayed an EC50 of 0.066 nM.

In turn, `CCCc1cc(N2CC[C@H](NC(=O)Cc3ccncc3)C2)nc(Nc2ccc(C)c(C#N)c2)n1` [Example 429] showed an EC50 of 0.025 nM.

Compound `CCCc1cc(N2CC[C@H](NC(=O)Cc3cccs3)C2)nc(Nc2ccc(C)c(C#N)c2)n1` [Example 430] came in with an EC50 of 0.027 nM.

`CCCc1cc(N2CC[C@H](NS(C)(=O)=O)C2)nc(Nc2ccc(C)c(C#N)c2)n1` [Example 431, (S)—N-{1-[2-(3-cyano-4-methylphenylamino)-6-propylpyrimidin-4-yl]pyrrolidin-3-yl}methanesulfonamide] registered a 50% effective concentration (EC50) of 0.029 nM.

Compound `CCCc1cc(N2CC[C@H](NC(=O)NCC)C2)nc(Nc2ccc(C)c(C#N)c2)n1` [Example 433] registered an EC50 of 0.055 nM.

Turning to `CCCc1cc(N2CC[C@H](CN(CC)CC)C2)nc(Nc2cccc(C#N)c2)n1` [Example 434], it took 0.111 nM to reach a half-maximal effect (EC50).

`CCCCc1cc(N2CC[C@H](NC(C)=O)C2)nc(Nc2ccc(C)c([N+](=O)[O-])c2)n1` [Example 436] came in with a concentration for a half-maximal effect (EC50) of 0.01 nM.

`CCCCc1cc(N2CC[C@H](NC(C)=O)C2)nc(Nc2ccc(F)c([N+](=O)[O-])c2)n1` [Example 437] returned an EC50 of 0.02 nM.

As to `CCCCc1cc(N2CC[C@H](NC(C)=O)C2)nc(Nc2ccc(Cl)c([N+](=O)[O-])c2)n1` [Example 438], the EC50 stood at 0.015 nM.

Consider `CCCCc1cc(N2CC[C@H](NC(C)=O)C2)nc(Nc2cc(N)cc(C#N)c2)n1` [Example 439], for which the response was half-maximal at 0.0075 nM (EC50).

Turning to `CCCCc1cc(N2CC[C@H](NC(C)=O)C2)nc(Nc2cc(N)cc(C(F)(F)F)c2)n1` [Example 440], a half-maximal effect (EC50) was put at 0.017 nM.

Take `CCCCc1cc(N2CC[C@H](NC(C)=O)C2)nc(Nc2ccc(N)c(C(F)(F)F)c2)n1` [Example 441]: a half-maximal effect (EC50) was put at 0.0095 nM.

Compound `CCCCc1cc(N2CC[C@H](NC(C)=O)C2)nc(Nc2ccc(F)c(C(F)(F)F)c2)n1` [Example 442] came in with an EC50 of 0.041 nM.

In the case of `CCCCc1cc(N2CC[C@H](NC(C)=O)C2)nc(Nc2ccc(F)c(C#N)c2)n1` [Example 443], the midpoint of the response, the EC50, lay at 0.0099 nM.

`CCCCc1cc(N2CC[C@H](NC(C)=O)C2)nc(Nc2ccc(F)c(N)c2)n1` [Example 444] showed a 50% effective concentration (EC50) of 0.012 nM.

As for `CCCCc1cc(N2CC[C@H](NC(C)=O)C2)nc(Nc2ccc(Cl)c(N)c2)n1` [Example 445], the EC50 was 0.0098 nM.

In turn, `CCCCc1cc(N2CC[C@H](NC(C)=O)C2)nc(Nc2ccc(N)c(C#N)c2)n1` [Example 446] displayed a 50% effective concentration (EC50) of 0.0077 nM.

Take `CCCCc1cc(N2CC[C@H](NC)C2)nc(Nc2ccc(N)c(C#N)c2)n1` [Example 447]: the concentration for a half-maximal effect (EC50) is 0.0023 nM.
